ChEMBL document CHEMBL3507680, “University of Dundee, Gates Library screen for HepG2 cell viability”

Assay: Human HepG2 cell viability assay in 384 well format
Type: toxicity, cell-based
Parameters: dose 125 nL, time 70.5 hour; concentration not given beside the values
Conditions: HepG2 cells, read-out: Inhibition

| Structure (SMILES) | cytotoxicity at 70.5 h |
| --- | --- |
| CN(C)CCNC(=O)CCC1CCN(C(=O)c2ccc(Cl)cc2O)CC1 | -8.44% |
| COc1ccc(C(=O)N2CCC(Oc3cccc(C)c3)(C(=O)O)CC2)o1 | 5.99% |
| COc1cccc(CN(C)C(C)c2ccon2)c1OCCn1ccnc1 (centres undefined) | -19.9% |
| Cc1cccn2c(CC(=O)N3CCC(CCn4cccn4)CC3)cnc12 | 13.1% |
| COCCN(C)C(C(=O)O)c1ccc(Cl)c(F)c1 (centres undefined) | -5.39% |
| Cc1nn(C)c2nc(N3CCC(C(O)c4ccccn4)CC3)sc12 (centres undefined) | -0.933% |
| CN1CC2(CCN(C(=O)Cn3ncc4ccccc4c3=O)CC2)OC1=O | -13.8% |
| C=C(C)COc1cccc(CN(C)C(C)c2nccs2)c1 (centres undefined) | -4% |
| CN(Cc1n[nH]c2c1CCCC2)c1cc(N2CCOCC2)nc(N)n1 | -8.11% |
| Cc1cccc(CN2CCN(C(=O)c3cnc(C)[nH]c3=O)CC2)c1 | 12.7% |
| Cc1cc(C)c2c(N3CCN(CCN4CCOCC4)CC3)ncnc2n1 | 16.3% |
| COc1ccccc1OC1(C(=O)O)CCN(c2ncccc2F)CC1 | -7.34% |
| O=C(O)CCc1cc2n(n1)CCCN(C(=O)c1ccc(F)cc1F)C2 | -0.277% |
| Cc1cc(NC(C)c2n[nH]c(C)n2)n2nc(C)c(C)c2n1 (centres undefined) | 20% |
| Cc1cccc(-n2cc(CNc3ncnc4c3CCNCC4)cn2)c1 | -10.3% |
| CN(C)C(=O)CCC1CCCN(Cc2cccc(-c3ccccn3)c2)C1 (centres undefined) | 12.2% |
| NC(=O)c1cccnc1N1C[C@@H]2CC[C@H](C1)N(Cc1ccccn1)C2=O | 5.12% |
| Cc1cc(C)c2[nH]c(C(=O)NCCN3CCCC3=O)c(C)c2c1 | 23.6% |
| COc1ccc2c(c1)CC(C(=O)N(C)CCCc1cnn(C)c1)CO2 (centres undefined) | -8.48% |
| CN1C[C@@H](N)C[C@H]1C(=O)N1CCC(CCCc2ccccc2)CC1 | -0.968% |
| Cc1nc2c(c(N3CCC(O)(CN4CCCC4)CC3)n1)CCN(C)CC2 | -3.57% |
| Cc1cccc2[nH]c(COCC(=O)N3CCCn4cncc4C3)nc12 | -6.34% |

| Structure (SMILES) | cytotoxicity at 70.5 h |
| --- | --- |
| CCN(Cc1nccn1C)C(=O)c1ccc(NCc2ccccc2)nc1 | -2.21% |
| O=C(O)c1cnc(-c2cccc3c2CCNC3)c(Cl)c1 | -11.1% |
| CCNC(=O)[C@@H]1C[C@@H](NC(=O)CSC)CN1Cc1ccncc1 | -10.5% |
| COc1ccc(Oc2cccnc2)cc1CN1CCCC1 | 28.5% |
| NC(=O)c1ccc(C2CCCN2C(=O)CCn2nnc3ccccc32)s1 (centres undefined) | -4.98% |
| CCC[C@H]1CN(Cc2ccccc2C#N)C[C@@H]1NS(C)(=O)=O | -6.89% |
| COCc1cc(CNCc2c(C)n(CC(C)C)c3ccccc23)n[nH]1 | -11% |
| Cc1ccccc1CN1CCC(CNc2ncnc3c2CCNCC3)C1 (centres undefined) | 1.87% |
| CN(C)c1ccnc(-c2ccnc3c2ccn3C)n1 | -5.41% |
| CC(C)[C@H]1CN(Cc2c[nH]nn2)C[C@@H]1NC(=O)C1CCOCC1 | -0.972% |
| Cc1cc2nc(C(=O)NCc3cccnc3N(C)C)cc(C)n2n1 | 3.6% |
| CN1CC2(CCN(C(=O)c3coc4c3C(=O)CCC4)C2)OC1=O (centres undefined) | -6.28% |
| COCC(C)N1CCc2onc(-c3ccc(F)c(F)c3)c2C1 (centres undefined) | -1.71% |
| O=C(Cn1ccc(=O)cc1)N1C[C@H]2CC[C@@H]1CN(c1ncccn1)C2 | -8.59% |
| O=C(N1CCOCC1)N1CCc2[nH]nc(COc3cccc(Cl)c3)c2C1 | -2.78% |
| CC(=O)N1CCCN(C(C(=O)O)c2cccc(C)c2C)CC1 (centres undefined) | -12.3% |
| Cc1ccc(C(=O)N2CCc3ncccc3C2)cc1N1CCNC1=O | 0.999% |
| CO[C@H]1C[C@@H](O)C12CCN(CCOc1ccc(Cl)cc1)CC2 | -1.42% |
| CC(C)N(Cc1nc(-c2cccs2)no1)CC1CCC(=O)N1 (centres undefined) | -11.1% |
| Cc1nccc(N[C@H]2CN(CCC(=O)NC3CCCC3)C[C@@H]2C2CC2)n1 | -2.83% |
| CC(C)=CCN1CC2(CCN(Cc3ncc[nH]3)CC2)CC1=O | 11.6% |
| Cc1cc(-c2cnn(C)c2)ccc1OCC(N)=O | -2.62% |
